Results: PubChem BioAssay AID328 (DTP/NCI, 2004)
“And” between values parts separate entries of the source, which are not always exact repeats. Identical values can stand only once. Toxic doses and inconclusive results are not listed.

Test system: BDF1 mice, P388 leukemia ip, median survival T/C
Assay: NCI In Vivo Anticancer Drug Screen. Data for tumor model P388 Leukemia (intraperitoneal) in B6D2F1 (BDF1) mice
Conditions: endpoint: median survival time, higher = longer survival
Outline: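 In tumour-bearing mice, survival after compound treatment is set against the vehicle group and given as a quotient.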

[1] = dose: 25.0 mg/kg/injection, schedule: Q01DX009 (ip), vehicle: saline with Tween-80
[2] = dose: 50.0 mg/kg/injection, schedule: Q01DX009 (ip), vehicle: saline with Tween-80
[3] = dose: 100.0 mg/kg/injection, schedule: Q01DX009 (ip), vehicle: saline with Tween-80
[4] = dose: 200.0 mg/kg/injection, schedule: Q01DX009 (ip), vehicle: saline with Tween-80
[5] = dose: 100.0 mg/kg/injection, schedule: Q01DX001 (ip), vehicle: saline with Tween-80
[6] = dose: 25.0 mg/kg/injection, schedule: Q01DX009 (ip), vehicle: Klucel (hydroxypropylcellulose) (HPC)
[7] = dose: 25.0 mg/kg/injection, schedule: Q01DX009 (ip), vehicle: water
[8] = dose: 50.0 mg/kg/injection, schedule: Q01DX009 (ip), vehicle: water
[9] = dose: 200.0 mg/kg/injection, schedule: Q01DX001 (ip), vehicle: saline with Tween-80
[10] = dose: 400.0 mg/kg/injection, schedule: Q01DX001 (ip), vehicle: saline with Tween-80
[11] = dose: 25.0 mg/kg/injection, schedule: Q01DX009 (ip), vehicle: saline
[12] = dose: 50.0 mg/kg/injection, schedule: Q01DX009 (ip), vehicle: saline
[13] = dose: 100.0 mg/kg/injection, schedule: Q01DX009 (ip), vehicle: saline
[14] = dose: 100.0 mg/kg/injection, schedule: Q01DX009 (ip), vehicle: Klucel (hydroxypropylcellulose) (HPC)
[15] = dose: 100.0 mg/kg/injection, schedule: Q04DX003 (ip), vehicle: Klucel (hydroxypropylcellulose) (HPC)
[16] = dose: 200.0 mg/kg/injection, schedule: Q01DX009 (ip), vehicle: Klucel (hydroxypropylcellulose) (HPC)
[17] = dose: 200.0 mg/kg/injection, schedule: Q04DX003 (ip), vehicle: Klucel (hydroxypropylcellulose) (HPC)
[18] = dose: 400.0 mg/kg/injection, schedule: Q01DX009 (ip), vehicle: Klucel (hydroxypropylcellulose) (HPC)
[19] = dose: 400.0 mg/kg/injection, schedule: Q04DX003 (ip), vehicle: Klucel (hydroxypropylcellulose) (HPC)

SMILES: C=C(C)[C@@]12O[C@@]3(CCCCCCCCC)O[C@@H]1[C@@H]1[C@@H]4O[C@]4(CO)[C@@H](O)[C@]4(O)C(=O)C(C)=CC4[C@@]1(O3)[C@H](C)[C@H]2OC(=O)c1ccccc1 (stereo partly drawn)
- T/C (dose: 400.0 micrograms/kg/injection, schedule: Q01DX009 (ip), vehicle: saline + alcohol): 174 % of control

SMILES: O=C(c1ccccc1)c1cc(-c2ccccc2)n(C2CCCCC2)c1
- T/C [1]: 96 % of control
- T/C [2]: 86 % of control
- T/C [3]: 94 % of control
- T/C [4]: 96 % of control

SMILES: Oc1c(-c2ccccc2)cc(-[n+]2c(-c3ccccc3)cc(-c3ccc(-c4ccccc4)cc3)cc2-c2ccccc2)cc1-c1ccccc1
- T/C (dose: 25.0 mg/kg/injection, schedule: Q01DX001 (ip), vehicle: saline with Tween-80): 107 % of control
- T/C (dose: 50.0 mg/kg/injection, schedule: Q01DX001 (ip), vehicle: saline with Tween-80): 98 % of control
- T/C [5]: 102 % of control

SMILES: CN(C)C(C#N)c1c[nH]c2ccccc12 (stereo not drawn)
- T/C (dose: 6.25 mg/kg/injection, schedule: Q01DX009 (ip), vehicle: Klucel (hydroxypropylcellulose) (HPC)): 105 % of control
- T/C (dose: 6.25 mg/kg/injection, schedule: Q04DX003 (ip), vehicle: Klucel (hydroxypropylcellulose) (HPC)): 109 % of control
- T/C (dose: 12.5 mg/kg/injection, schedule: Q01DX009 (ip), vehicle: Klucel (hydroxypropylcellulose) (HPC)): 100 % of control
- T/C (dose: 12.5 mg/kg/injection, schedule: Q04DX003 (ip), vehicle: Klucel (hydroxypropylcellulose) (HPC)): 100 % of control
- T/C [6]: 94 % of control
- T/C (dose: 25.0 mg/kg/injection, schedule: Q04DX003 (ip), vehicle: Klucel (hydroxypropylcellulose) (HPC)): 100 % of control

SMILES: O=C(NC(=S)N1CCOCC1)c1ccccc1
- T/C [2]: 100 % of control
- T/C [3]: 90 % of control
- T/C [4]: 100 % of control
- T/C (dose: 400.0 mg/kg/injection, schedule: Q01DX009 (ip), vehicle: saline with Tween-80): 97 % of control

SMILES: Cc1cccc(C(=O)/C=C/c2ccc(OCc3ccccc3)cc2)c1
- T/C [2]: 91 % of control
- T/C [3]: 91 % of control
- T/C [4]: 89 % of control

SMILES: CS(=O)(=O)Nc1ccc(Nc2c3ccccc3nc3cc(Cl)ccc23)cc1
- T/C (dose: 9.6 mg/kg/injection, schedule: Q04DX003 (ip), vehicle: Klucel (hydroxypropylcellulose) (HPC)): 100 % of control
- T/C (dose: 14.0 mg/kg/injection, schedule: Q04DX003 (ip), vehicle: Klucel (hydroxypropylcellulose) (HPC)): 104 % of control
- T/C (dose: 132.0 mg/kg/injection, schedule: Q04DX003 (ip), vehicle: saline): 260 % of control and 195 % of control
- T/C (dose: 200.0 mg/kg/injection, schedule: Q04DX003 (ip), vehicle: saline): 272 % of control and 205 % of control
- T/C (dose: 300.0 mg/kg/injection, schedule: Q04DX003 (ip), vehicle: saline): 259 % of control

SMILES: CCCC1CC[N-]CC1.CCCC1CC[N-]CC1.[Cl][Pd][Cl]
- T/C (dose: 12.5 mg/kg/injection, schedule: Q04DX003 (ip), vehicle: water): 95 % of control
- T/C [7]: 114 % of control
- T/C [8]: 114 % of control
- T/C (dose: 100.0 mg/kg/injection, schedule: Q04DX003 (ip), vehicle: water): 90 % of control and 112 % of control and 120 % of control
- T/C (dose: 200.0 mg/kg/injection, schedule: Q04DX003 (ip), vehicle: water): 95 % of control and 99 % of control and 120 % of control
- T/C (dose: 300.0 mg/kg/injection, schedule: Q04DX003 (ip), vehicle: water): 96 % of control

SMILES: COC(=O)c1oc(C(=O)OC)c(OCc2ccccc2)c1OCc1ccccc1
- T/C (dose: 50.0 mg/kg/injection, schedule: Q01DX001 (ip), vehicle: saline sonified): 100 % of control
- T/C (dose: 100.0 mg/kg/injection, schedule: Q01DX001 (ip), vehicle: saline sonified): 109 % of control
- T/C (dose: 200.0 mg/kg/injection, schedule: Q01DX001 (ip), vehicle: saline sonified): 90 % of control

SMILES: CCCCCCCCSC(=S)N(C)NC(=O)c1ccccn1
- T/C [2]: 99 % of control
- T/C [3]: 105 % of control

SMILES: CC(=O)C(C(C)=O)c1cc(NS(=O)(=O)c2ccccc2)ccc1O
- T/C [5]: 104 % of control
- T/C [9]: 100 % of control
- T/C [10]: 95 % of control

SMILES: C=CS(=O)(=O)c1ccccc1
- T/C (dose: 18.0 mg/kg/injection, schedule: Q01DX009 (ip), vehicle: saline with Tween-80): 114 % of control
- T/C (dose: 18.0 mg/kg/injection, schedule: Q04DX003 (ip), vehicle: saline with Tween-80): 90 % of control
- T/C (dose: 24.0 mg/kg/injection, schedule: Q01DX009 (ip), vehicle: saline with Tween-80): 100 % of control
- T/C (dose: 36.0 mg/kg/injection, schedule: Q01DX009 (ip), vehicle: saline with Tween-80): 116 % of control
- T/C (dose: 36.0 mg/kg/injection, schedule: Q04DX003 (ip), vehicle: saline with Tween-80): 100 % of control
- T/C (dose: 72.0 mg/kg/injection, schedule: Q01DX009 (ip), vehicle: saline with Tween-80): 114 % of control
- T/C (dose: 72.0 mg/kg/injection, schedule: Q04DX003 (ip), vehicle: saline with Tween-80): 109 % of control

SMILES: OCCNCCNc1ccnc2cc(Cl)ccc12
- T/C (dose: 12.5 mg/kg/injection, schedule: Q01DX009 (ip), vehicle: saline): 102 % of control
- T/C [11]: 115 % of control
- T/C [12]: 116 % of control
- T/C [13]: 118 % of control

SMILES: Cc1cccc(NC(=O)Nc2ccc(Oc3ccccc3Cl)c(S(=O)(=O)O)c2)c1
- T/C [11]: 90 % of control
- T/C [12]: 90 % of control
- T/C [13]: 90 % of control

SMILES: C/C(=N\N)c1ccc(Cl)cc1
- T/C (dose: 6.25 mg/kg/injection, schedule: Q01DX009 (ip), vehicle: saline with Tween-80): 100 % of control
- T/C (dose: 12.5 mg/kg/injection, schedule: Q01DX009 (ip), vehicle: saline with Tween-80): 104 % of control
- T/C [1]: 95 % of control

SMILES: CN(C)C(=O)c1cccc(N)c1
- T/C [13]: 100 % of control
- T/C (dose: 200.0 mg/kg/injection, schedule: Q01DX009 (ip), vehicle: saline): 95 % of control
- T/C (dose: 400.0 mg/kg/injection, schedule: Q01DX009 (ip), vehicle: saline): 100 % of control

SMILES: CC(=N\O)/C(C)=N/O.CC(=N\O)/C(C)=N/O.O=C(O)C1CC[N-]CC1.O=C(O)C1CC[N-]CC1.O=C(O)C1CC[N-]CC1.O=C(O)C1CC[N-]CC1.[Cl-].[Cl-].[Cl][Rh][Cl].[Rh+3]
- T/C [7]: 100 % of control
- T/C [8]: 94 % of control
- T/C (dose: 200.0 mg/kg/injection, schedule: Q01DX009 (ip), vehicle: water): 94 % of control
- T/C (dose: 400.0 mg/kg/injection, schedule: Q01DX009 (ip), vehicle: water): 88 % of control

SMILES: COc1ccccc1NC(=O)c1ccc(Cl)cc1Cl
- T/C [6]: 116 % of control
- T/C (dose: 50.0 mg/kg/injection, schedule: Q01DX009 (ip), vehicle: Klucel (hydroxypropylcellulose) (HPC)): 122 % of control
- T/C [14]: 122 % of control
- T/C [15]: 100 % of control
- T/C [16]: 104 % of control
- T/C [17]: 95 % of control
- T/C [18]: 104 % of control
- T/C [19]: 104 % of control

SMILES: CC(C)=CC=O
- T/C [5]: 100 % of control
- T/C [9]: 96 % of control
- T/C [10]: 100 % of control

SMILES: CC(=O)[O][Hg][c]1cc(-c2ccc(N=Nc3c(S(=O)(=O)O)cc4cccc(N)c4c3O)cc2)ccc1N=Nc1c(S(=O)(=O)O)cc2cccc(N)c2c1O
- T/C (dose: 1.5 mg/kg/injection, schedule: Q01DX009 (ip), vehicle: saline with Tween-80): 100 % of control
- T/C (dose: 3.0 mg/kg/injection, schedule: Q01DX009 (ip), vehicle: saline with Tween-80): 100 % of control
- T/C (dose: 6.0 mg/kg/injection, schedule: Q01DX009 (ip), vehicle: saline with Tween-80): 95 % of control

SMILES: CC(=O)OC1CC2CCC1(C)C2(C)C (stereo not drawn)
- T/C (dose: 50.0 mg/kg/injection, schedule: Q04DX003 (ip), vehicle: saline with Tween-80): 109 % of control
- T/C (dose: 100.0 mg/kg/injection, schedule: Q04DX003 (ip), vehicle: saline with Tween-80): 109 % of control
- T/C (dose: 200.0 mg/kg/injection, schedule: Q04DX003 (ip), vehicle: saline with Tween-80): 118 % of control

SMILES: CCN(CC)CCC(=O)c1ccccc1
- T/C [2]: 95 % of control

SMILES: CC(=O)CC(=O)Nc1ccc(Cl)cc1Cl
- T/C [14]: 96 % of control
- T/C [15]: 87 % of control
- T/C [16]: 104 % of control
- T/C [17]: 87 % of control
- T/C [18]: 88 % of control
- T/C [19]: 95 % of control
